Assay results as given in patent publication US9408393B2, “Bismuth-thiols as antiseptics for agricultural, industrial and other uses” (Microbion Corporation, priority 2010, dated 2016).
In brackets after ≈: the same amount, converted by molar mass. Each block holds one compound with its values, some of them ahead of it.

Key:
[1] = test system: Staphylococcus aureus (SA, MRSA); experiment: Single-point BisEDT-antibiotic combination FICI; format: cell-based
Enterococcus faecalis = experiment: Single-point BisEDT-antibiotic combination FICI; format: cell-based; conditions: E Fc 3121
Escherichia coli = experiment: Single-point BisEDT-antibiotic combination FICI; format: cell-based
Klebsiella pneumoniae = experiment: Single-point BisEDT-antibiotic combination FICI; format: cell-based; conditions: KP 1231
Pseudomonas aeruginosa = experiment: Single-point BisEDT-antibiotic combination FICI; format: cell-based; conditions: PA 1380
Burkholderia cepacia = experiment: Single-point BisEDT-antibiotic combination FICI; format: cell-based; conditions: Bcep 1756
Bukholderia multivorans = experiment: Single-point BisEDT-antibiotic combination FICI; format: cell-based; conditions: Bmult 5665
Acinetobacter baumanii = experiment: Single-point BisEDT-antibiotic combination FICI; format: cell-based; conditions: Abau 2594
Mycobacterium smegmatis = experiment: Single-point BisEDT-antibiotic combination FICI; format: cell-based; conditions: Msmeg 817
[2] = test system: Streptococcus pneumoniae (SP, PRSP); experiment: Single-point BisEDT-antibiotic combination FICI; conditions: PRSP 5348
[3] = test system: Enterococcus faecium (VSEfm, VREfm); experiment: microbe, parasite or virus in culture; format: cell-based; conditions: vancomycin-resistant Enterococcus faecium (VREfm)
[4] = neutral pH; cited from earlier work
[5] = Uninoculated solubility control plate (drug precipitation in test media); format: physicochemical; conditions: uninoculated solubility control plates; BisEDT observation at 32 μg/mL
S. epidermidis biofilm = experiment: Biofilm prevention concentration (BPC), BisEDT and antibiotics; format: cell-based, Staphylococcus epidermidis; conditions: regardless of antibiotic employed
Description: S. epidermidis grown in TSB+2% glucose in polystyrene plates for 48 h at 37° C. Gatifloxacin (GF), clindamycin (CM), minocycline (MC), gentamicin (GM), vancomycin (VM), cefazolin (CZ), nafcillin (NC), and rifampicin (RP). […]

S. aureus strains = experiment: In vitro inhibition from PMMA cement bead vehicle; format: cell-based, Staphylococcus aureus; conditions: with and without Tobramicin and Vancomycin
S. aureus = experiment: Contaminated open fracture, rat femur critical defect model; format: in vivo; conditions: BT gel 5 mg/ml, 1 ml in defect, with Cefazolin 5 mgKg^−1 s.c. twice daily 3 days, day 14
From the text: Standard errors of the mean are shown as error bars. Animals euthanized early are not excluded from the analysis, however samples from one animal in group 2 have been excluded due to gross contamination.
The aim of this study was to determine whether BTs will reduce infection in a contaminated open fracture model either on their own or with antibiotics. The contaminated rat femur critical defect model is a well-accepted model and was used for the experiments described in this Example. This model offers a standardized model for comparing various possible treatments and their effects on reducing infection and/or improving healing.
Three formulations of microparticulate BTs were produced in a clinically useful hydrogel gel form as described herein.
Two treatment arms were used: in the first arm, BT was used singularly; in the second arm BT was used in conjunction with a systemic antibiotic (ABx).
Six hours after inoculation with S. aureus, the wound was debrided, irrigated with saline and 1 ml of BT gel inserted within the defect.
Six hours after inoculation with S. aureus, the wound was debrided, irrigated with saline and 1 ml of BT gel added inserted within the defect. The antibiotic used was Cefazolin at a dose equivalent to 5 mgKg^−1 delivered via sub-cutaneous injection twice daily for a total of 3-days following the injury. The first dose was administered immediately prior to debridement.
Six hours after inoculation with S. aureus, the wound was debrided and irrigated with saline. The control animals were also treated with Cefazolin as per the regime described above.
The procedure for the in vivo rat injury model was performed as described by Chen et al. (2002 J. Orthop. Res. 20:142; 2005 J. Orthop. Res. 23:816; 2006 J. Bone Joint Surg. Am. 88:1510; 2007 J. Orthop. Trauma 21:693). The rats were anesthetized and prepped for surgery. The anterolateral aspect of the femoral shaft was exposed through a 3-cm incision. The periosteum and attached muscle was stripped from the bone. A polyacetyl plate (27×4×4 mm) was placed on the anterolateral surface of the femur. The plates were predrilled to accept 0.9-mm diameter threaded Kirschner wires. The bases of these plates were formed to fit the contour of the femoral shaft. Pilot holes were drilled through both cortices of the femur using the plate as a template and threaded Kirschner wire was inserted through the plate and femur. The notches that were 6 mm apart on the plate served as a guide for bone removal. A small oscillating saw was used to create the defect while the tissue was cooled by continuous irrigation in an effort to prevent thermal damage.
Several groups of 10 animals each were inoculated with 1×10^5 CFU of S. aureus and treated with BT alone or in combination with antibiotics 6 hours post-inoculation as described above. The groups were as follows: Bis-EDT gel; MB-11 gel; MB-8-2 gel; Bis-EDT gel & Abx; MB-11 gel & Abx; MB-8-2 gel & Abx; Control (Abx alone).
Animals were euthanized 14 days after surgery and bone and hardware sent for microbiological analysis, the results of which are shown in FIG. 7.

E. coli = experiment: Broth dilution MIC, BT-antibiotic combinations; format: cell-based; conditions: Escherichia coli; E. coli Ampicillin/Chloramphenicol resistant; antibiotic alone
Description: Materials & Methods. Susceptibility studies were performed by broth dilution in 96-well tissue culture plates (Nalge Nunc International, Denmark) in accordance with NCCLS protocols (National Committee for Clinical Laboratory Standards. (1997). Methods for Dilution Antimicrobial Susceptibility Tests for Bacteria that Grow Aerobically: Approved Standard M7-A2 and Informational Supplement M100-S10. NCCLS, Wayne, Pa., USA).
Briefly, overnight bacterial cultures were used to prepare 0.5 McFarland standard suspensions, which were further diluted 1:50 (˜2×10^6 cfu/mL) in cation-adjusted Mueller-Hinton broth medium (BBL, Cockeysville, Md., USA). […] Cultures were incubated for 24 h at 37° C. and turbidity was assessed by absorption at 630 nm using an ELISA plate reader (Biotek Instruments, Winooski, Vt., USA) according to the manufacturer's recommendations. […] Viable bacterial counts (cfu/mL) were determined by standard plating on nutrient agar.
The checkerboard method was used to assess the activity of antimicrobial combinations. The fractional inhibitory concentration index (FICI) and the fractional bactericidal concentration index (FBCI) were calculated, according to Eliopoulos et al. (Eliopoulos and Moellering, (1996) Antimicrobial combinations. In Antibiotics in Laboratory Medicine (Lorian, V., Ed.), pp. 330-96, Williams and Wilkins, Baltimore, Md., USA). […]

resistant E. coli = experiment: MIC in Mueller-Hinton II broth, antibiotic + BisEDT; format: cell-based, Escherichia coli; conditions: Escherichia coli, read-out: Drug + BE MIC, Chloramphenicol/Ampicillin resistant E. coli; BE 0.33 μg/ml
From the text: Chloramphenicol and ampicillin resistant Escherichia coli were made sensitive to these drugs by the addition of subMIC BisEDT (Table 24).
Tetracycline resistant Escherichia coli were made sensitive to doxycycline by the addition of subMIC BisEDT (Table 25).

[6] = test system: Staphylococcus aureus (MSSA, MRSA, CA-MRSA); experiment: microbe, parasite or virus in culture; format: cell-based

Compound: [H]/N=C(/N)N[C@H]1[C@H](O)[C@@H](O)[C@H](O[C@@H]2O[C@@H](C)[C@](O)(C=O)[C@H]2O[C@@H]2O[C@@H](CO)[C@H](O)[C@@H](O)[C@@H]2NC)[C@@H](N/C(N)=N\[H])[C@@H]1O [Streptomycin]
- FICI, single-point BisEDT-antibiotic combination ([1]; MRSA 773): 0.95
- FICI, single-point BisEDT-antibiotic combination (Enterococcus faecalis): 0.61
- FICI, single-point BisEDT-antibiotic combination (Escherichia coli; EC 2232): 1.29
- FICI, single-point BisEDT-antibiotic combination (Klebsiella pneumoniae): 1.04
- FICI, single-point BisEDT-antibiotic combination (Pseudomonas aeruginosa): 1.98
- FICI, single-point BisEDT-antibiotic combination (Burkholderia cepacia): 1.37
- FICI, single-point BisEDT-antibiotic combination (Bukholderia multivorans): 1.12
- FICI, single-point BisEDT-antibiotic combination (Acinetobacter baumanii): 2.62
- FICI, single-point BisEDT-antibiotic combination (Mycobacterium smegmatis): 1.13
- FICI, single-point BisEDT-antibiotic combination [2]: 0.66

- MIC90 [3]: 2 µg/mL (≈ 5.93 µM)
Compound: CC(=O)NC[C@H]1CN(c2ccc(N3CCOCC3)c(F)c2)C(=O)O1 [Linezolid]
- FICI, single-point BisEDT-antibiotic combination ([1]; MRSA 773): 1.23
- FICI, single-point BisEDT-antibiotic combination ([1]; SA 100): 1.23
- FICI, single-point BisEDT-antibiotic combination (Enterococcus faecalis): 1.23
- FICI, single-point BisEDT-antibiotic combination [2]: 1.11

Compound: Zinc pyrithione
- Solubility in water [4]: 8 ppm

Compound: C1C[S][Bi]([S]CC[S][Bi]2[S]CC[S]2)[S]1 [BisEDT, bismuth-1,2-ethanedithiol]
- Solubility in MIC test media [5]: trace precipitate
- Biofilm at 0.1 μg/ml BisEDT (S. epidermidis biofilm): no biofilm was detected
- Effect on S. aureus strains in vitro from PMMA cement beads (S. aureus strains): inhibitory effects
- S. aureus infection detected on hardware, effect on Cefazolin activity (S. aureus): did not appear to affect Cefazolin activity
- S. aureus infection of injured bone, effect on Cefazolin activity (S. aureus): enhanced

Compound: O=C(N[C@H](CO)[C@H](O)c1ccc([N+](=O)[O-])cc1)C(Cl)Cl [CM, chloramphenicol]
- MIC (E. coli): 220 µg/mL
- MIC (resistant E. coli): 12.7 µg/mL

- MIC90 ([6]; MSSA clinical isolates): 0.03 µg/mL (≈ 0.1 µM)
- MIC ([6]; S. aureus 29213, one value on a single run, one dilution below published QC range, read-out: MIC, quality control strain): 0.008 µg/mL (≈ 0.0267 µM)
Compound: C[C@@H](O)[C@H]1C(=O)N2C(C(=O)O)=C(SCCN=CN)C[C@H]12 [Imipenem]
- FICI, single-point BisEDT-antibiotic combination ([1]; MRSA 773): 1.48
- FICI, single-point BisEDT-antibiotic combination ([1]; SA 100): 0.67
- FICI, single-point BisEDT-antibiotic combination (Enterococcus faecalis): 0.73
- FICI, single-point BisEDT-antibiotic combination (Escherichia coli; EC 102): 1.11
- FICI, single-point BisEDT-antibiotic combination (Escherichia coli; EC 2232): 1.29
- FICI, single-point BisEDT-antibiotic combination (Klebsiella pneumoniae): 1.23
- FICI, single-point BisEDT-antibiotic combination (Pseudomonas aeruginosa): 1.12
- FICI, single-point BisEDT-antibiotic combination (Burkholderia cepacia): 0.73
- FICI, single-point BisEDT-antibiotic combination (Bukholderia multivorans): 1.23
- FICI, single-point BisEDT-antibiotic combination (Acinetobacter baumanii): 0.81
- FICI, single-point BisEDT-antibiotic combination [2]: 0.43
